Data reported in patent US20070026080A1, “Manufacturing process for tigecycline” (Wyeth, priority 2005, published 2007).

Experiment: Strength and degradation profile of tigecycline 20 mg/mL bulk solutions by reversed phase HPLC (effect of temperature, time, pH, dissolved oxygen; Runs A to O)
Assay type: physicochemical
Method: The contents of the sample vials are dissolved in diluent. The sample solution is diluted, if necessary, and chromatographed on a reversed phase column using gradient elution. Impurities are determined by comparing the impurity peak areas in the sample preparation chromatogram to the average area of tigecycline peaks in the standard preparation chromatograms obtained concomitantly.
Chromatographic Column—Length about 15 cm, inside diameter about 4.6 mm, packed with Inertsil ODS2, 5 μm size particles or equivalent.
Detector—Ultraviolet spectrophotometric detector capable of operating at 248 nm with a sensitivity of about 0.5 absorbance units full scale.
The results of additional studies to investigate the effect of processing parameters such as temperature, time, and dissolved oxygen content on the purity profile of tigecycline solutions using the following materials, methods and procedures are presented in Tables A to O.
The experiments were run in plastic glove bags under normal laboratory light conditions. Plastic glove boxes will be used to control the headspace of the beakers. The batch size was 200 mL. • 1. Prepare the glove bag with a mixture of nitrogen and air to achieve an oxygen level in the solution as per the design. • 2. Place the jacketed beaker on the magnetic stirrer. Connect it to the cooler. Set the cooler to the desired set point. • 3. Add 200 mL of SWFI in to the beaker. Allow equilibrating. Measure the temperature and oxygen content. When it reaches the desired condition, add accurately weighed API and mix until dissolved. If necessary use spatula to aid dissolution. For pH adjustments, use 4 mL of either 0.1N NaOH or 0.1N HCl and 196 mL of WFI for manufacture. • 4. After complete dissolution, Transfer about 5.5 mL of Solution in vials and stopper them. These vials will be stoppered at the appropriate headspace conditions. Place the vials in appropriate temperature conditions. • 5. Sample the vials at 1, 4, 8, 10, 12 and 24 hours. Send the samples for analysis. Freeze the 10, 12 and 24 samples at −20° C. for analysis the following day. • 6. Measure pH and record color of the solution at each time point. Results
The 1-hour samples were taken directly from the beakers. Samples for later time points were collected in stoppered vials processed in the atmosphere of the bag in order to simulate the headspace conditions then placed in water baths or refrigerator to maintain there respective temperature conditions. This was done to maintain safety in the lab. Disposable plastic glove bags require constant flow of a mixture of nitrogen and air to maintain headspace oxygen level that will result in the desired dissolved oxygen (DO) content in the sample. The pH of samples was measured at each sample points.
Strength and degradation profile was analyzed by HPLC as described above. […] Degradation was slightly higher at higher temperature condition.

[1] = Run #N, 8° C., pH 8.2, Oxygen = 0.1 mg/L, 4 Hrs
[2] = Run #N, 8° C., pH 8.2, Oxygen = 0.1 mg/L, 8 Hrs
[3] = Run #N, 8° C., pH 8.2, Oxygen = 0.1 mg/L, 12 Hrs
[4] = Run #N, 8° C., pH 8.2, Oxygen = 0.1 mg/L, 24 Hrs
[5] = Run #O, 20 mg/mL, 5° C., Oxygen = 0.1 mg/mL, hours 1,4,8,12,24 at r7-r11, time 1 h
[6] = Run #O, 20 mg/mL, 5° C., Oxygen = 0.1 mg/mL, hours 1,4,8,12,24 at r7-r11, time 4 h
[7] = Run #O, 20 mg/mL, 5° C., Oxygen = 0.1 mg/mL, hours 1,4,8,12,24 at r7-r11, time 8 h
[8] = Run #O, 20 mg/mL, 5° C., Oxygen = 0.1 mg/mL, hours 1,4,8,12,24 at r7-r11, time 12 h
[9] = Run #O, 20 mg/mL, 5° C., Oxygen = 0.1 mg/mL, hours 1,4,8,12,24 at r7-r11, time 24 h

## CN(C)c1cc(NC(=O)CNC(C)(C)C)c(O)c2c1C[C@H]1C[C@H]3[C@H](N(C)C)C(O)=C(C(N)=O)C(=O)[C@@]3(O)C(O)=C1C2=O [Tigecycline]
[1]
  RRT 0.78 MW = 557: BRL (BRL means below reporting limit (meaning less than 0.05% of tigecycline peak))
  RRT 1.12: BRL (BRL means below reporting limit (meaning less than 0.05% of tigecycline peak))
  RRT 1.45: 0.07%
  RRT 1.58: BRL (BRL means below reporting limit (meaning less than 0.05% of tigecycline peak))
  RRT 1.64 Mino: 0.10%
  RRT 1.67 MW = 556: BRL (BRL means below reporting limit (meaning less than 0.05% of tigecycline peak))
  RRT 1.85 MW = 597: 0.09%
  Strength: 19.378 mg/mL
  Total: 0.54%
[2]
  RRT 0.12 MW = 633: BRL (BRL means below reporting limit (meaning less than 0.05% of tigecycline peak))
  RRT 0.23 MW = 572: BRL (BRL means below reporting limit (meaning less than 0.05% of tigecycline peak))
  RRT 0.50 MW = 601: BRL (BRL means below reporting limit (meaning less than 0.05% of tigecycline peak))
  RRT 0.55 MW = 583: BRL (BRL means below reporting limit (meaning less than 0.05% of tigecycline peak))
  RRT 0.58: 0.07%
  RRT 0.64 9-Amino: BRL (BRL means below reporting limit (meaning less than 0.05% of tigecycline peak))
  RRT 0.74 Epimer: 0.22%
  RRT 0.76: BRL (BRL means below reporting limit (meaning less than 0.05% of tigecycline peak))
  RRT 0.78 MW = 557: BRL (BRL means below reporting limit (meaning less than 0.05% of tigecycline peak))
  RRT 1.12: BRL (BRL means below reporting limit (meaning less than 0.05% of tigecycline peak))
  RRT 1.45: 0.08%
  RRT 1.58: BRL (BRL means below reporting limit (meaning less than 0.05% of tigecycline peak))
  RRT 1.64 Mino: 0.08%
  RRT 1.67 MW = 556: BRL (BRL means below reporting limit (meaning less than 0.05% of tigecycline peak))
  RRT 1.85 MW = 597: 0.08%
  Strength: 19.275 mg/mL
  Total: 0.53%
[3]
  RRT 0.12 MW = 633: BRL (BRL means below reporting limit (meaning less than 0.05% of tigecycline peak))
  RRT 0.23 MW = 572: BRL (BRL means below reporting limit (meaning less than 0.05% of tigecycline peak))
  RRT 0.50 MW = 601: BRL (BRL means below reporting limit (meaning less than 0.05% of tigecycline peak))
  RRT 0.55 MW = 583: 0.07%
  RRT 0.58: 0.06%
  RRT 0.64 9-Amino: BRL (BRL means below reporting limit (meaning less than 0.05% of tigecycline peak))
  RRT 0.74 Epimer: 0.31%
  RRT 0.76: BRL (BRL means below reporting limit (meaning less than 0.05% of tigecycline peak))
  RRT 0.78 MW = 557: BRL (BRL means below reporting limit (meaning less than 0.05% of tigecycline peak))
  RRT 1.12: BRL (BRL means below reporting limit (meaning less than 0.05% of tigecycline peak))
  RRT 1.45: 0.08%
  RRT 1.58: 0.05%
  RRT 1.64 Mino: 0.11%
  RRT 1.67 MW = 556: 0.07%
  RRT 1.85 MW = 597: 0.08%
  Strength: 19.382 mg/mL
  Total: 0.83%
[4]
  RRT 0.12 MW = 633: BRL (BRL means below reporting limit (meaning less than 0.05% of tigecycline peak))
  RRT 0.23 MW = 572: BRL (BRL means below reporting limit (meaning less than 0.05% of tigecycline peak))
  RRT 0.50 MW = 601: BRL (BRL means below reporting limit (meaning less than 0.05% of tigecycline peak))
  RRT 0.55 MW = 583: BRL (BRL means below reporting limit (meaning less than 0.05% of tigecycline peak))
  RRT 0.58: 0.06%
  RRT 0.64 9-Amino: BRL (BRL means below reporting limit (meaning less than 0.05% of tigecycline peak))
  RRT 0.74 Epimer: 0.31%
  RRT 0.76: BRL (BRL means below reporting limit (meaning less than 0.05% of tigecycline peak))
  RRT 0.78 MW = 557: BRL (BRL means below reporting limit (meaning less than 0.05% of tigecycline peak))
  RRT 1.12: BRL (BRL means below reporting limit (meaning less than 0.05% of tigecycline peak))
  RRT 1.45: 0.10%
  RRT 1.58: 0.05%
  RRT 1.64 Mino: 0.13%
  RRT 1.67 MW = 556: 0.07%
  RRT 1.85 MW = 597: 0.11%
  Strength: 19.211 mg/mL
  Total: 0.82%
[5]
  RRT 0.74 Epimer: 0.21%
  RRT 1.85 MW = 597: 0.08%
  Strength: 18.777 mg/mL
[6]
  RRT 0.58: 0.09%
  RRT 0.74 Epimer: 0.23%
  Strength: 18.971 mg/mL
  Total: 0.53%
[7]
  RRT 1.45: 0.09%
  RRT 1.64 Mino: 0.06%
  RRT 1.85 MW = 597: 0.09%
  Strength: 19.051 mg/mL
[8]
  RRT 0.58: 0.07%
  RRT 0.74 Epimer: 0.24%
  RRT 1.45: 0.07%
  RRT 1.64 Mino: 0.08%
  RRT 1.85 MW = 597: 0.10%
  Strength: 18.722 mg/mL
  Total: 0.55%
[9]
  RRT 0.74 Epimer: 0.25%
  RRT 1.64 Mino: 0.11%
  RRT 1.85 MW = 597: 0.06%
  Strength: 19.238 mg/mL
  Total: 0.56%
Range of pH (7.7-8.2) studied
  effect of pH on the degradation of tigecycline bulk solution: did not have any significant effect
When oxygen is removed from the process and the temperature is controlled
  degradation: very little degradation is seen
